This passage reports IC50 results from patent publication US9701681B2, “Fused ring heteroaryl compounds and their use as Trk inhibitors” (CMG Pharmaceutical Co., Ltd., priority 2014, dated 2017).

One assay relates to KM12-luc cells. Put plainly: Cell proliferation assay (KM12). The conditions noted are these: 72 hours exposure, read-out: IC50 (nM) Cell-based assay (KM12). Here is the method:
(§1) Doxorubicin was purchased from Sigma Aldrich (D1515). All compounds were diluted in DMSO (Sigma Aldrich, D2650). AlamarBlue® cell viability reagent was purchased from Thermo Scientific (88952). CellTiter 96® AQueous One Solution Cell proliferation assay was purchased from Promega. KM12-luc cells were obtained from JCRB (National Institute of Health Sciences, Tokyo, Japan). They were maintained in DMEM medium (GIB-11965-118) supplemented with 10% fetal bovine serum (Gibco, 16000-044) and MEM Non-Essential Amino Acids Solution (Thermo Scientific, 11140-050). TF-1 cells were obtained from ATCC. They were maintained in RPMI medium (GIB-A10491) supplemented with 10% fetal bovine serum (Gibco, 16000-044), GM-CSF (Thermo Scientific, 11140-050), and β-NGF (R&D systems). Trypsin/EDTA was purchased from Gibco (GIB-25300-054, 0.05%). 96-well plates were purchased from Corning Inc.
(§2) The proliferation assay was performed for Chemical Compounds 1-61 s in media supplemented with 10% FBS, using AlamarBlue® cell viability reagent or CellTiter 96® AQueous One Solution Cell proliferation assay kit. Cells were cultured in humidified 37° C. incubator with 5% CO2. To evaluate the antiproliferation activity of compounds, TF-1 cells were adjusted to GM-CSF free media (RPMI, 10% FBS, and 1% penicillin-streptomycin) for 16 hr and were seeded in 96-well plates at 30,000 cells/well with medium (RPMI, 10% FBS, 1% penicillin-streptomycin and 10 ng/ml human β-NGF). KM12-luc were seeded at 10,000 cells per well into 96-well plates. After overnight incubation, serial dilutions of compounds were added to triplicate wells, and cells were exposed for 72 hours. The final concentration of DMSO was adjusted to 0.5% in media. Quantitation of cell growth was assessed using two kinds of reagent. 20 ul of AlamarBlue® reagent in an amount equal to 10% of the culture volume was added to each well and were incubated in humidified 37° C. incubator with 5% CO2 for 2 hr. Otherwise, 20 ul of CellTiter 96® reagent was added to each well and were incubated in the same conditions as previously described. Data were plotted, and GI50 values were calculated using GraphPad software. Table 1 below includes the results of the assays.

Another assay concerns the target T1, TRK A, B & C kinase.
T1 construct: fused on or other part: Carna's Trk kinases are usually GST-tagged cytoplasmic domains
Put plainly: TRK A, B & C kinase assay (ADP-Glo / HTRF KinEASE-TK). The format is biochemical. The conditions noted are these: ADP-Glo or HTRF KinEASE-TK kit, isoform not specified, read-out: IC50 (nM) Enzymatic assay. Here is the method: ADP-Glo assay kit was purchased from Promega. poly (Glu, Tyr), Magnesium sulfate, Bovine serum albumin (BSA) and dimethylsulfoxide(DMSO) were purchased from Sigma-Aldrich. Tris-HCl buffer was purchased from BD Gentest. HTRF KinEASE-TK kit was purchased from cisbio. TRK A, B & C kinase was purchased from Carna bioscience.
Kinase assay was performed for Chemical Compounds 1-61 using two methods using luminescent ADP-Glo assay kit (Promega) and HTRF KinEASE-TK assay kit (cisbio). The luminescent ADP-Glo assay kit (Promega) measures ADP formed from a kinase reaction. ADP converted into ATP, which is then converted into light by Ultra-Glo luciferase. The HTRF KinEASE-TK assay kit (cisbio) measures tyrosine kinase activities using one substrate and a universal detection system.
ADP-Glo Assay Kit (Promega)
The protein kinase assay was performed for Chemical Compounds 1-61 at […] concentrations are 0.4 ng/ul of TrKA, 0.5 ng/ul of TrKB and 3 ng/ul of TrKC, respectively), 5 μL of 1 ug/ul stock solution of poly(glu, Tyr), 5 μL of compounds or assay buffer, 5 μL of ATP (125 μM stock solution).
The assay was started by incubating the reaction mixture in a 96-well plate at 30° C. for 1 hr. After the incubation, the assay was terminated by the addition of 25 […] Detection Reagent was added, and the 96-well plate was shaken and then incubated for additional 30 min at ambient temperature. The 96-well reaction plate was then read on an Enspire plate reader. The IC50 values were derived through a curve fitting using SigmaPlot.
HTRF KinEASE-TK Assay Kit (Cisbio)
The HTRF KinEASE-TK assay was performed for Chemical Compounds 1-61 in 384-well low volume microplate (Greiner). The HTRF KinEASE-TK assay format involves the two steps. The first step is kinase reaction step. This kinase reaction step was performed at RT (room temperature) in final volume of 10 ul according to the following assay reaction recipe: 10 ul of kinase mixture (Kinase (2 ul)+ATP (2 ul)+Substrate (2 ul)+Compound (4 ul)). Kinase final concentrations were 0.3 ng/ul of TRKA, 0.1 ng/ul of TRKB, 0.03 ng/ul of TRKC, respectively. ATP final concentrations were 14.7 uM (TRKA), 4.77 uM (TRKB), 25.6 uM (TRKC) respectively. TK-substrate final concentration was 0.3 ng/ul. The mixtures exposed to Dose response concentration (DRC) compound from 0 to 100 nM for 40 min. During the kinase reaction step, the kinase reaction was started by the addition of ATP. Kinase phosphorylates the substrate.
The second is detection step. 10 ul of detection reagents (5 ul Sa-XL 665 in EDTA+5 ul TK Antibody-Eu in EDTA) was added to kinase mixture. This step was performed at room temperature for 1 hr. The detection reagent detects phosphorylated substrates.
Finally 384-well reaction plate was then read on FlexStation 3 machine. The fluorescence was measured at 620 nm (Cryptate) and 665 nm (XL665). A ratio is calculated ([…]/620)×10^4 for each well. The IC50 value was derived through a curve fitting using GraphPad Prism. Table 1 below includes the results of the assays.

In the next assay the test system is TF-1 cells. Put plainly: Cell proliferation assay (TF-1). The conditions noted are these: 10 ng/ml human β-NGF, 72 hours exposure, read-out: IC50 (nM) Cell-based assay (TF-1). Here is the method: as §1, §2

On to `Cc1nnc(-c2cnn3ccc(N4CCCC4c4cc(F)ccc4F)nc23)o1` (centres unmarked) [Chemical Compound 1, 2-(5-(2-(2,5-difluorophenyl)pyrrolidin-1-yl)pyrazolo[1,5-a]pyrimidin-3-yl)-5-methyl-1,3,4-oxadiazole], for which the IC50 (commonly the midpoint of a concentration-inhibition curve) with KM12-luc cells was below 100 nM; at TRK A, B & C kinase, below 10 nM; in the assay with TF-1 cells it was below 100 nM.
Turning to `Cc1nnc(-c2cnn3ccc(N4CCCC4c4cc(F)ccc4F)nc23)s1` (centres unmarked) [Chemical Compound 2, 2-(5-(2-(2,5-difluorophenyl)pyrrolidin-1-yl)pyrazolo[1,5-a]pyrimidin-3-yl)-5-methyl-1,3,4-thiadiazole], the IC50 in the assay on KM12-luc cells was below 100 nM; on TRK A, B & C kinase it was below 10 nM; in the assay with TF-1 cells it was below 10 nM.
For the compound `CCc1nnc(-c2cnn3ccc(N4CCCC4c4cc(F)ccc4F)nc23)o1` (centres unmarked) [Chemical Compound 3, 2-(5-(2-(2,5-difluorophenyl)pyrrolidin-1-yl)pyrazolo[1,5-a]pyrimidin-3-yl)-5-ethyl-1,3,4-oxadiazole], the IC50 is below 100 nM in the assay with KM12-luc cells; below 10 nM on TRK A, B & C kinase; below 10 nM in the assay on TF-1 cells.
For the compound `CCc1nnc(-c2cnn3ccc(N4CCCC4c4cc(F)ccc4F)nc23)s1` (centres unmarked) [Chemical Compound 4, 2-(5-(2-(2,5-difluorophenyl)pyrrolidin-1-yl)pyrazolo[1,5-a]pyrimidin-3-yl)-5-ethyl-1,3,4-thiadiazole], the IC50 was below 100 nM in the assay with KM12-luc cells; below 10 nM at TRK A, B & C kinase; below 10 nM in the assay on TF-1 cells.
In the case of `CC(C)c1nnc(-c2cnn3ccc(N4CCCC4c4cc(F)ccc4F)nc23)o1` (centres unmarked) [Chemical Compound 5, 2-(5-(2-(2,5-difluorophenyl)pyrrolidin-1-yl)pyrazolo[1,5-a]pyrimidin-3-yl)-5-isopropyl-1,3,4-oxadiazole], the concentration for half-maximal inhibition (IC50) is below 10 nM with KM12-luc cells; below 10 nM on TRK A, B & C kinase; below 10 nM in the assay on TF-1 cells.
For the compound `CC(C)c1nnc(-c2cnn3ccc(N4CCCC4c4cc(F)ccc4F)nc23)s1` (centres unmarked) [Chemical Compound 6, 2-(5-(2-(2,5-difluorophenyl)pyrrolidin-1-yl)pyrazolo[1,5-a]pyrimidin-3-yl)-5-isopropyl-1,3,4-thiadiazole], the IC50 in the assay with KM12-luc cells was below 10 nM; at TRK A, B & C kinase, below 10 nM; with TF-1 cells it was below 10 nM.
As for `Fc1ccc(F)c(C2CCCN2c2ccn3ncc(-c4nnc(C5CC5)o4)c3n2)c1` (centres unmarked) [Chemical Compound 7, 2-cyclopropyl-5-(5-(2-(2,5-difluorophenyl)pyrrolidin-1-yl)pyrazolo[1,5-a]pyrimidin-3-yl)-1,3,4-oxadiazole], the concentration for half-maximal inhibition (IC50) in the assay on KM12-luc cells was below 100 nM; on TRK A, B & C kinase, below 10 nM; with TF-1 cells, below 10 nM.
For the compound `CC1(O)CCN(C(=O)/C=C/c2cnn3ccc(N4CCC[C@@H]4c4cc(F)ccc4F)nc23)CC1` [Chemical Compound 58, (R,E)-3-(5-(2-(2,5-difluorophenyl)pyrrolidin-1-yl)pyrazolo[1,5-a]pyrimidin-3-yl)-1-(4-hydroxy-4-methylpiperidin-1-yl)prop-2-en-1-one], the IC50 in the assay with KM12-luc cells was below 10 nM; at TRK A, B & C kinase, below 10 nM.
Consider `O=C(/C=C/c1cnn2ccc(N3CCC[C@@H]3c3cc(F)ccc3F)nc12)N1CC[C@H](O)C1` [Chemical Compound 60, (E)-3-(5-((R)-2-(2,5-difluorophenyl)pyrrolidin-1-yl)pyrazolo[1,5-a]pyrimidin-3-yl)-1-((S)-3-hydroxypyrrolidin-1-yl)prop-2-en-1-one], for which the IC50 with KM12-luc cells is below 100 nM; on TRK A, B & C kinase it was below 10 nM.
For “(E)-3-(5-((R)-2-(2,5-difluorophenyl)pyrrolidin-1-yl)pyrazolo[1,5-a]pyrimidin-3-yl)-1-((R)-3-hydroxypyrrolidin-1-yl)prop-2-en-1-one [Chemical Compound 59]” the same measures were below 100 nM and below 10 nM.
As to “(R,E)-3-(5-(2-(2,5-difluorophenyl)pyrrolidin-1-yl)pyrazolo[1,5-a]pyrimidin-3-yl)-1-(4-hydroxypiperidin-1-yl)prop-2-en-1-one [Chemical Compound 57]”, the half-inhibitory concentration (IC50) with KM12-luc cells is below 100 nM; on TRK A, B & C kinase, below 10 nM.
